Structures can show the parent of a compound that is named as a salt. Where two headings read alike, the source gives them in different places.

Data set [1] is described as follows: Influence of the drug on the host: change in weight and symptoms (Example 3). It counts as in vivo, BALB/cAJcl-nu nude mouse. Particulars: 60 mg/kg i.v. d7, d11, d14. On the procedure: The experiment was ended after 4 weeks from the starting day of administration. The tumor cell diameter was measured twice a week, and the weight was measured at the time of administration, so as to monitor the state of tumor cell proliferation and effect of drug administration, as well as any other physical changes. The mice were kept in a small vinyl isolator throughout the experiment, except for when they were moved to a clean bench through a sleeve to perform tumor cell transplantation, administration or weight measurement.
The influence of the drug on the host was evaluated by considering the change in weight and the expression of symptoms.

Data set [2] concerns human gastric cancer H-23 (moderately differentiated-type adenocarcinoma). The data set can be described thus: Anti-tumor effect using nude mice-transplanted human tumor (Example 3). Particulars: 60 mg/kg i.v. d7, d11, d14.
Data set [3] shares this test system. The data set can be described thus: Anti-tumor effect using nude mice-transplanted human tumor (Example 2). It counts as in vivo, BALB/cAJcl-nu nude mouse. The settings on record: 60 mg/kg i.v. q4d×4, final day d35.
The next data set relates to MCF-7 tumor cells. The experiment in a line: Cytotoxicity test, viable cell count with Cell Counting Kit-8 (WST-8). Format: cell-based. Particulars: read-out: 50% inhibiting activity. On the procedure:
Ellipticine which had been size-reduced by laser beam irradiation (concentration: 2 μg/ml) was diluted with the below-mentioned culturing solution, and test samples having concentrations of 1 μg/ml, 0.5 μg/ml, 0.25 μg/ml and 0.125 μg/ml were prepared. MCF-7 (MEM-culture medium) and L-1210 (RPMI-1640 culture medium) tumor cells were used as target cells. The cytotoxicity was evaluated by counting the number of viable cells following 24 hours of culturing, using Cell Counting Kit-8. More specifically, WST-8 (U.S. Pat. No. 2,757,348) as an indicate for dehydrogenase activities was used, and the color at 450 nm was evaluated. Viability(%)=(Asamples−Ablank)/(Ano-samples−Ablank) 100%
The cytotoxicity of the SN-38 nano particles was evaluated by counting the number of viable cells following 24 hours of culturing in the same manner as in the cytotoxicity test of ellipticine as described in item (3-4) of Example 1. The 50% inhibiting activity for MCF-7 cells was 100 nM.
The cytotoxicity of the 10-hydroxy-camptothecin nano particles was evaluated by counting the number of viable cells following 72 hours of culturing in the same manner as in the cytotoxicity test of ellipticine as described in item (3-4) of Example 1. The 50% inhibiting activity for MCF-7 cells was 100 nM.
In general terms: Formazan colour is commonly taken as a measure of viable cells.

Regarding `CCc1c2c(nc3ccc(OC(=O)N4CCC(N5CCCCC5)CC4)cc13)-c1cc3c(c(=O)n1C2)COC(=O)[C@]3(O)CC` [CPT-11, irinotecan hydrochloride], in data set [1], the body state result was “not good” and the “maximum weight loss (max. wt. loss)” value worked out at 0.4%. Also, in data set [2] (d18), the “evaluation of max. IR” value is “effective (IR≧58%)” and the “max. IR” value came out at 69.0%. In addition, in data set [2] (d21), the drug effect evaluation result is given as “non-effective (IR of below 58%)”. For the same compound, the drug effect evaluation result in data set [2] (final day d35) is “non-effective (IR of below 58%)”. Further, the drug effect evaluation entry in data set [3] was “non-effective (IR of below 58%)”.
Consider `CC[C@@]1(O)C(=O)OCc2c1cc1n(c2=O)Cc2cc3cc(O)ccc3nc2-1` [DMSO solution of 10-hydroxy-camptothecin, 10-hydroxy-camptothecin], for which the IC50 in the data set on MCF-7 tumor cells (MCF-7, 72 hours of culturing) turned out to be 100 nM.
On to `CCc1c2c(nc3ccc(O)cc13)-c1cc3c(c(=O)n1C2)COC(=O)[C@]3(O)CC` [DMSO solution of SN-38, 7-ethyl-10-hydroxycamptothecin], for which the IC50 in the data set with MCF-7 tumor cells (MCF-7, 24 hours of culturing) turned out to be 500 nM.

Source of the values: US8399024B2, “Water-insoluble medicine” (Ebara Corporation, priority 2006, dated 2013).
